The values below come from patent publication US20150166617A1, “COMPOSITIONS AND METHODS OF TREATING ALZHEIMER'S DISEASE” (UNIVERSITY OF MIAMI, priority 2012, published 2015).

Square brackets hold non-standard residues; d marks the D form. Peptide text beside a SMILES is read from it. * marks the point of attachment. Phe(F5) = N[C@@H](Cc1c(F)c(F)c(F)c(F)c1F)C(=O)O; Phe(4-Cl) = N[C@@H](Cc1ccc(Cl)cc1)C(=O)O; hArg = N=C(N)NCCCC[C@H](N)C(=O)O; 12Ado = NCCCCCCCCCCCC(=O)O; Nle = CCCC[C@H](N)C(=O)O; Orn = NCCC[C@H](N)C(=O)O; Abu = CC[C@H](N)C(=O)O; PhAc = O=C(Cc1ccccc1)*

In data set [1] the test system is Alzheimer's disease related genes. As to the kind of experiment: Mouse Alzheimer's Disease real-time quantitative PCR array on brain samples of 5XFAD mice. It counts as in vivo. The settings on record: brain of 5XFAD mice, 10 μg daily for six months. As to the method:
Total RNA was isolated and DNAse treated from representative hemispheria using NucleoSpin kit according to the manufacturer's instructions (Macherey-Nagel Inc., Bethlehem, Pa.). Five samples each from the control and the 10 μg MIA-690 group were analyzed. The yield and the quality of RNA samples were determined spectrophotometrically using 260 nm, and 260/280 and 260/230 nm ratio. The synthesis of cDNA was performed as follows. Briefly, 1 μg of RNA from each sample was reverse-transcribed into cDNA by RT First Strand kit (Qiagen). Reverse transcription was done in a Veriti 96-well thermal cycler (Applied Biosystems). The Mouse Alzheimer's Disease real-time quantitative PCR array (PAMM-057Z Qiagen) used in the study contains 84 unique genes related to Alzheimer's disease. All PCR arrays were performed using iQ5 Multicolor Real-Time Detections System (Bio-Rad). […] Data analysis of gene expression was performed using Excel based PCR Array Data Analysis Software provided by the manufacturer (Qiagen): fold-changes in gene expression were calculated using the ΔΔCt method and five stably expressed housekeeping genes (Act b, B2m, GAPDH, Gus b, Hsp 90 ab1) were used for normalization of the results.

The test system of the next data set is HCN-2 cells. Kind of data set: Cell viability assay, HCN-2 cells treated with amyloid-β1-42 (MTT), Example 5. It counts as cell-based. The settings on record: 10 μM amyloid-β1-42; peptide 10 nM, 100 nM, 1 μM; four days of exposure; FIG. 7. As to the method:
Differentiated HCN-2A neuronal cells were treated with 10 μM amyloid-β1-42 alone and in combination with 10 nM, 100 nM and 1 μM of MIA-602, MIA-606 and MIA 640. After the treatment, the cell viability was determinate as indicated by the supplier using the Promega Cell Titer 96® Aqueous Non-Radioactive Cell Proliferation Assay. The absorbance level was determined at 490 nm. Data are percentage of control (n=3).
HCN-2 cells (American Type Culture Collection, Manassas, Va., USA) were cultured in DMEM medium (supplemented with 10% Fetal Bovine Serum (FBS) and 0.1% penicillin/streptomycin) at 37° C. and in an atmosphere of air and 5% CO2. Cell were directly plated into 96-well micro plates at 5,000 cells/cm^2. After 7 days, to allow cell number duplication (up to 70-80% confluence), the differentiation of HCN-2 cells was induced by adding fresh medium containing 25 ng/ml NGF, 0.5 mM dibutyryl cAMP and 0.5 mM isobutylmethylxanthine (IBMX) (all from Sigma-Aldrich, St. Louis, Mo.) for a week. Then, human amyloid-β1-42 (Sunnyvale, Calif.) stock solution (10 mM) was prepared in TRIS and then immediately diluted to appropriate concentrations in the assay medium. The medium used for neurotoxicity assay was N2-supplemented DMEMF12 (Gibco BRL, NY) with 2% FBS. The treatment groups were control, amyloid-β1-42, and the combination treatments with amyloid-β1-42 and 3 doses (10 nM, 100 nM and 1 μM) of the analogs (MIA-602, MIA-606 and MIA-640). The effect of the analogs on cell viability was evaluated after four days of exposure by using the 3-(4,5-Dimethylthiazol-2-yl)-2,5-diphenyltetrazolium bromide (MTT) assay (Cell Titer 96® Non-Radioactive Cell Proliferation Assay, Promega, Madison, Wis.), according to the manufacturer's instructions.

As to `CCCC[C@H](NC(=O)[C@@H](NC(=O)[C@H](CC(=O)O)NC(=O)[C@H](CCC(N)=O)NC(=O)[C@H](CC(C)C)NC(=O)[C@H](CC(C)C)NC(=O)[C@H](CCCN)NC(=O)[C@H](Cc1c[nH]cn1)NC(=O)[C@H](C)NC(=O)[C@H](CO)NC(=O)[C@H](CC(C)C)NC(=O)[C@H](CCC(N)=O)NC(=O)[C@H](CC)NC(=O)[C@H](CC(C)C)NC(=O)[C@@H](NC(=O)[C@H](CCCN)NC(=O)[C@H](Cc1c[nH]cn1)NC(=O)[C@H](Cc1c(F)c(F)c(F)c(F)c1F)NC(=O)[C@H](CCCCNC(=N)N)NC(=O)[C@H](C)NC(=O)[C@@H](NC(=O)[C@H](Cc1ccc(Cl)cc1)NC(=O)[C@@H](NC(=O)[C@H](C)NC(=O)[C@H](CC(=O)O)NC(=O)[C@@H](CCCNC(=N)N)NC(=O)[C@H](Cc1ccc(O)cc1)NC(=O)CCCCCCCCCCCNC(=O)Cc1ccccc1)[C@@H](C)CC)[C@@H](C)O)C(C)C)[C@@H](C)CC)C(=O)N[C@H](CCCNC(=N)N)C(=O)N[C@@H](CCCCNC(=N)N)C(N)=O` [MIA-690, Phac-Ada-Tyr^1-D-Arg^2-Asp^3-Ala^4-Ile^5-Cpa^6-Thr^7-Ala^8-Har^9-Fpa5^10-His^11-Orn^12-Val^13-Leu^14-Abu^15-Gln^16-Leu^17-Ser^18-Ala^19-His^20-Orn^21-Leu^22-Leu^23-Gln^24-Asp^25-Ile^26-Nle^27-D-Arg^28-Har^29-NH2] ({PhAc-12Ado}-Y[dR]DAI[Phe(4-Cl)]TA[hArg][Phe(F5)]H[Orn]VL[Abu]QLSAH[Orn]LLQDI[Nle][dR][hArg]-NH2), in data set [1], the “Fold change vs. controls: amyloid-β (A4) precursor protein binding family A, member 2” value is given as −2.94 fold and the “Fold change vs. controls: amyloid-β (A4) precursor protein binding family B, member 3” value is listed as −2.04 fold.
In the case of “Phac-Ada-Tyr^1-D-Arg^2-Asp^3-Ala^4-Ile^5-Cpa^6-Thr^7-Ala^8-Har^9-Fpa5^10-His^11-Orn^12-Val^13-Leu^14-Abu^15-Gln^16-Glu^17-Ser^18-Ala^19-His^20-Orn^21-Leu^22-Leu^23-Gln^24-Asp^25-Ile^26-Nle^27-D-Arg^28-Har^29-Ada-NH2 [MIA-640]”, the “viability of neurons (HCN-2) under amyloid-β1-42 co-treatment” value in the data set with HCN-2 cells is listed as “attenuated the toxic impact of co-treatment with amyloid-β1-42 on the viability of neurons”.
In the case of “Phac-Ada-Tyr^1-D-Arg^2-Asp^3-Ala^4-Ile^5-Phe(F)5^6-Thr^7-Ala^8-Har^9-Tyr(Me)^10-His^11-Orn^12-Val^13-Leu^14-Abu^15-Gln^16-Leu^17-Ser^18-Ala^19-His^20-Orn^21-Leu^22-Leu^23-Gln^24-Asp^25-Ile^26-Nle^27-D-Arg^28-Har^29-NH2 [MIA-602]”, in the data set on HCN-2 cells, the “viability of neurons (HCN-2) under amyloid-β1-42 co-treatment” value was “attenuated the toxic impact of co-treatment with amyloid-β1-42 on the viability of neurons”.
On the same count and under the same terms, for “Phac-Ada-Tyr^1-D-Arg^2-Asp^3-Ala^4-Ile^5-Phe(F)5^6-Thr^7-Me-Ala^8-Har^9-Tyr(Me)^10-His^11-Orn^12-Val^13-Leu^14-Abu^15-Gln^16-Leu^17-Ser^18-Ala^19-His^20-Orn^21-Leu^22-Leu^23-Gln^24-Asp^25-Ile^26-Nle^27-D-Arg^28-Har^29-Agm-NH2 [MIA-606]” the value was “attenuated the toxic impact of co-treatment with amyloid-β1-42 on the viability of neurons”.
